Experimental data: US9328093B2, “Selective inhibitors of ubiquitin specific protease 7, the pharmaceutical compositions thereof and their therapeutic applications” (HYBRIGENICS SA, priority 2010, dated 2016)

How the values were obtained:
[1] = target: T1, USP7 over a panel of active DUBs (Homo sapiens, UniProt Q93009); experiment: HA-Ub-VS labeling of active DUBs in HEK293 cell lysates; type: biochemical; conditions: different doses
Source text: (§1) The C-terminally modified vinyl sulfone derivative of ubiquitin, UbVS, was clearly helpful for a direct visualization of active DUBs in cells. This tool, which binds covalently to the cysteine active site of deubiquitinating enzymes, was successfully applied to discover and characterize novel ubiquitin/ubiquitin-like proteases and to profile active deubiquitinating enzymes in normal, virus-infected, and malignant cells (Borodovsky et al., Chem Biol 2002, 9, 1149-1159, Hemelaar et al., Mol Cell Biol 2004, 24, 84-95, Ovaa et al., Proc Natl Acad Sci USA 2004 101, 2253-2258).
The HA-Ub-VS probe (Hemagglutin tag-Ubiquitin-Vinyl Sulfone) was used in this study to directly visualize the activity of all deubiquitinating enzymes from cell lysates. […]
Inducible USP7 shRNA HCT116 cells (previously treated with or without Doxycycline (2 μg/ml) for 4 days) as well as HEK293 cells were harvested and lysed on ice with a non denaturating buffer containing Tris pH7.4, 50 mM; NaCl, 150 mM; MgCl2, 5 mM; EDTA, 0.5 mM; DTT, 2 mM; ATP, 2 mM; NP40, 0.5% and glycerol, 10%. […] Proteins were then quantified by Bradford method (Bio-Rad Protein Assay). […] Signals were detected by enhanced chemiluminescence (ECL; Amersham) according to the reagent manufacturer's instructions.

[2] = target: T1, USP7 over a panel of active DUBs; experiment: HA-Ub-VS labeling of active DUBs in HCT116 cell lysates; type: biochemical; parameters: endogenous in cells; host or cells: HCT116 (inducible USP7 shRNA line), non-denaturing lysate; conditions: for HA-Ub-VS-USP7 protein level: different doses (100 μM to 3 μM), 2 hours
Source text: as §1
The HA-Ub-VS probe (Hemagglutin tag-Ubiquitin-Vinyl Sulfone) was used in this study to directly visualize the activity of all deubiquitinating enzymes from cell lysates. This tool was used to evaluate the activity/specificity of our small molecule compounds on USP7 relative to all deubiquitinating enzymes active in physiological conditions.
Inducible USP7 shRNA HCT116 cells (previously treated with or without Doxycycline (2 μg/ml) for 4 days) as well as HEK293 cells were harvested and lysed on ice with a non denaturating buffer containing Tris pH7.4, 50 mM; NaCl, 150 mM; MgCl2, 5 mM; EDTA, 0.5 mM; DTT, 2 mM; ATP, 2 mM; NP40, 0.5% and glycerol, 10%. Samples were incubated at 4° C. for 1 hour and clarified. Proteins were then quantified by Bradford method (Bio-Rad Protein Assay). 25 μg of proteins from native cell lysates were treated with compounds of examples 14 and 5 (from 100 μM to 3 μM) or with NEM (N-Ethylmaleimide, a thiol-reactive compound, 5 mM) for 2 hours at room temperature. The ubiquitin labeling reaction was initiated by the addition of HA-Ub-VS (8 μg/ml) in labeling buffer (Tris pH7.6, 50 mM; MgCl2, 5 mM; EDTA, 0.5 mM; DTT, 2 mM; ATP, 2 mM; sucrose, 250 mM) and incubated at room temperature for 30 min. Samples were next heated at 100° C. for 10 minutes and briefly sonicated. They were resolved by SDS-polyacrylamide gel electrophoresis (SDS-PAGE), transferred to a nitrocellulose membrane and probed with antibodies against USP7 (Bethyl Lab, A300-034A), HA (BabCO, MMS-101P), and actin (Sigma, A2066). Horseradish peroxidase (HRP)-conjugated anti-mouse (Jackson Laboratories, 115-035-003) or HRP-conjugated anti-rabbit (Cell Signaling, 7074) antibodies were used as secondary antibodies. Signals were detected by enhanced chemiluminescence (ECL; Amersham) according to the reagent manufacturer's instructions.

[3] = test system: HCT116 colon cancer cells; experiment: HCT116 cell viability and proliferation assay (MTS); type: cell-based; conditions: Homo sapiens, HCT-116, 72 h, HCT116, 72 hours, read-out: Cell viability (MTS): HCT116 GI50 Day3
Protocol: HCT116 colon cancer cells were obtained from ATCC (American Type Culture Collection), and maintained in Mc Coy's 5A medium containing 10% FBS, 3 mM glutamine and 1% penicillin/streptomycin. Cells were incubated at 37° C. in a humidified atmosphere containing 5% CO2.
Cell viability was assayed using the MTS technique in 96-well culture plates (CellTiter 96® Aqueous Non-Radioactive Cell Proliferation Assay, Promega) according to the manufacturer's instructions. MTS (3-(4,5-dimethyl-thiazol-2-yl)-5-(3-carboxy-methoxyphenyl)-2-(4-sulfophenyl)-2H-tetra-zolium) is a MTT-derived tetrazolium that is reduced in metabolically active cells into a soluble, cell-permeant formazan. The amount of formazan, detected by its absorbance at 492 nm is proportional to the number of living, metabolically active cells.
10^3 HCT116 cells were seeded per well. 24 hours later, the medium was changed and the cells treated in triplicate with the concentrations of each compound from 100 μM to 50 nM. The compounds were diluted in 100% DMSO, whose final concentration on cells was kept at 0.5%.
Cells were incubated with the compounds for 72 hours, and their viability then assayed by the addition of MTS for 2 hours. Absorbance at 492 nm was measured directly from the 96-well culture plates. Gl50 (Growth Inhibition 50) concentrations for each compound were calculated using a sigmoidal variable slope fit (Prism 4.0, Graphpad Softwares). Values represent mean of three independent experiments.

T1 sequence (Q93009 whole entry): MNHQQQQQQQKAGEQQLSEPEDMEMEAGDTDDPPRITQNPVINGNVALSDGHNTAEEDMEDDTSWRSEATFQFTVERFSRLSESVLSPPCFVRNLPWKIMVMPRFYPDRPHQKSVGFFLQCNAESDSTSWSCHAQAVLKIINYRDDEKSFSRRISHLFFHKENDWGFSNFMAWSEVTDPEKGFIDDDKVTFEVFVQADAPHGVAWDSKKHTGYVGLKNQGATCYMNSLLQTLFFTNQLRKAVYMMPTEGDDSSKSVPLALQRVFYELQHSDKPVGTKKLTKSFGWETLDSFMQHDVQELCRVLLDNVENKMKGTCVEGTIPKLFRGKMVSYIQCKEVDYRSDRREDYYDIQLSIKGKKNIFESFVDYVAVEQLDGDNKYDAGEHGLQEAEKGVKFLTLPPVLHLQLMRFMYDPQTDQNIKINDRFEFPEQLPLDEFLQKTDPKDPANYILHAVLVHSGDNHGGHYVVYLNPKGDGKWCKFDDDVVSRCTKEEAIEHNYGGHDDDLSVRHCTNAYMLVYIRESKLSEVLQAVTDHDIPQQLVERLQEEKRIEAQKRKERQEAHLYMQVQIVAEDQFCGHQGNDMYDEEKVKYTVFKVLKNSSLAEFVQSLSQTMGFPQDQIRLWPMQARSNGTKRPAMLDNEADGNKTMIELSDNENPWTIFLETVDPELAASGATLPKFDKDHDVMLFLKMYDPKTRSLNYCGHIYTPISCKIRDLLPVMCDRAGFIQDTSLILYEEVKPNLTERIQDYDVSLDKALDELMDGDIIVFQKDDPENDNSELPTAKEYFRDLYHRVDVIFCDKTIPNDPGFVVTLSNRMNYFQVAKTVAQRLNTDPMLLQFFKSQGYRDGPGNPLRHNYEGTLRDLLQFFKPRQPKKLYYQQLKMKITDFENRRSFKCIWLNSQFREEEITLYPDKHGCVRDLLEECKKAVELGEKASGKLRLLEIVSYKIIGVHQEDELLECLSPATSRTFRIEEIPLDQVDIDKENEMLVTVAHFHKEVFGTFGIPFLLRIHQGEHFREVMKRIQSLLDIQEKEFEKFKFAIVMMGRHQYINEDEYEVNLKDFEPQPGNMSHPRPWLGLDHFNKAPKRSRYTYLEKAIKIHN

| HA-Ub-VS-USP7 protein level [1] | HA-Ub-VS-USP7 protein level [2] | GI50 [3] | HA-Ub-VS labeled DUB bands after treatment ([2]; fixed dose 50 μM, anti-HA immunoblot) | Compound | HA-Ub-VS labeling of the active form of DUBs ([2]; NEM 5 mM) |
| --- | --- | --- | --- | --- | --- |
| also confirmed | specific and dose-dependent decrease | 4 µM | – | CCN(CCCNC(=O)c1ccc2c(Cl)c3c(nc2c1)CCCC3)Cc1ccccc1 [Example 5, 9-Chloro-5,6,7,8-tetrahydro-acridine-3-carboxylic acid [3-(benzyl-ethyl-amino)-propyl]-amide] | – |
| also confirmed | specific and dose-dependent decrease | 4.1 µM | only one band was decreased | CN(CCCNC(=O)c1ccc2c(Cl)c3c(nc2c1)CCCC3)Cc1ccccc1 [Example 14, 9-Chloro-5,6,7,8-tetrahydro-acridine-3-carboxylic acid [3-(benzyl-methyl-amino)-propyl]-amide] | – |
| – | – | – | – | CCN1C(=O)C=CC1=O [NEM, N-Ethylmaleimide, reference compound] | inhibited |
